Reference: patent US20220031708A1, “METHOD FOR TREATING IDIOPATHIC PULMONARY FIBROSIS” (NuMedii, Inc., priority 2019, published 2022)
Like-named read-outs stand apart in the source and are kept apart here.

Legend:
[1] = test system: lung fibroblasts isolated from human IPF donor lungs; assay: Fibroblast-to-myofibroblast transition (FMT), aSMA induction by TGFb, IPF donor fibroblasts; assay type: cell-based; settings: 1.25 ng/mL TGFb; for IC50: Homo sapiens, Fibroblast, 72 h, read-out: LogM IC50 aSMA (converted); for LogM IC50 aSMA: 72 hours
Protocol: (§1) Primary fibroblasts cultured from the lungs of patients with IPF (n=3) or healthy donors (n=3) were exposed to Chk1 inhibitors or control compounds to determine the effect of Chk1 inhibitors on fibroblast differentiation into myofibroblasts (i.e., fibroblast-to-myofibroblast transition [FMT]). […] Chk1 inhibitors were dosed in an 8-point concentration curve 1 hr prior to TGFb treatment. Alpha-SMA and DAPI staining were assessed after 72 hours using high content analysis. The ability of the Chk1 inhibitors to block fibroblast-to-myofibroblast differentiation was determined by quantifying percent inhibition (PIN) of aSMA induction. Cell viability was also measured to determine whether the compounds were cytotoxic.

[2] = test system: Primary fibroblasts cultured from the lungs of healthy donors; assay: Fibroblast-to-myofibroblast transition (FMT), aSMA induction by TGFb, healthy donor fibroblasts; assay type: cell-based, human; settings: 1.25 ng/mL TGFb; for IC50: Homo sapiens, Fibroblast, 72 h, read-out: LogM IC50 aSMA (converted); for LogM IC50 aSMA: 72 hours
Protocol: as §1

[3] = test system: M1 macrophages differentiated from human monocytes; assay: M1 macrophage activation, CD80 flow cytometry after LPS/IFNg; assay type: cell-based; settings: dosed 1 hour before LPS/IFNg, 3 days; FIG. 2A
Protocol: (§2) Human monocytes were isolated from the peripheral blood of IPF patients, exposed to various doses of PF-477736 for 1 hour, and then differentiated into M1 macrophages by exposure to LPS/IFNg, or into M2 macrophages by exposure to IL-4, for 3 days. The cells were analyzed by flow cytometry for CD80 cell surface expression as marker of M1 differentiation, and for CD163 cell surface expression as marker of M2 differentiation. In addition, cell supernatants were tested in a Luminex-based assay for various cytokines and matrix metalloproteinases (MMPs).

[4] = test system: M2 macrophages differentiated from human monocytes; assay: M2 macrophage activation, CD163 flow cytometry after IL-4; assay type: cell-based; settings: dosed 1 hour before IL-4, 3 days; FIG. 2B
Protocol: as §2

[5] = test system: macrophages exposed to LPS and IFNg; assay: Luminex-based assay of cytokines and MMPs in macrophage supernatants; assay type: cell-based, human; settings: FIG. 2C
Protocol: as §2

[6] = test system: mouse model of pulmonary fibrosis; assay: Bleomycin mouse model of pulmonary fibrosis: histopathology and collagen deposition; assay type: in vivo, C57BL6 mice; settings: for Collagen deposition (% pixel count) / Fiber Alignment / Fiber Count / Fiber Density: relative vs vehicle; for disease burden by collagen deposition, fiber count, fiber density and fiber alignment (Sirius red): FIG. 4A, FIG. 4B, Table 8; for histopathology scores (Ashcroft, Masson's Trichrome): PF-477736 10 or 20 mg/kg i.p., nintedanib 100 mg/kg orally, FIG. 3A
Protocol: To induce fibrosis, 6-8 week old C57BL6 mice were dosed with 3 mg/kg bleomycin hydrochloride in a volume of 50 μL per animal via intratracheal (i.t.) administration with a microsprayer. One week following administration of bleomycin, mice were treated with compound or vehicle once daily from day 7 to day 20. PF-477736 was administered at a dose of either 10 mg/kg (“med”) or 20 mg/kg (“high”) i.p. in a vehicle of […] sodium acetate buffer and 4% dextrose, pH 4. Nintedanib was administered orally at 100 mg/kg in a vehicle of 1% methylcellulose. n=10 mice per group.
At the end of the study, lungs were processed using standard histological methods for Masson's Trichrome staining and were assigned Ashcroft scores by a blinded pathologist.
Whole lung imaging was performed using a modified deep learning algorithm to calculate an average histogram (FIG. 3B) and empirical cumulative density function (ECDF, FIG. 3C) for each arm. The X axes represent severity of pathology, and the Y axes represent frequency (histograms) or cumulative frequency (ECDF).
Histological sections were also stained using Sirius red and assessed for collagen deposition (%), collagen fiber count, collagen fiber density, and collagen fiber alignment in a protocol modified from Bredfeldt et al. 2014, “Computational segmentation of collagen fibers from second-harmonic generation images of breast cancer.” Journal of biomedical optics 19.1.

[7] = test system: Human lung fibroblasts from three donors; assay: FMT assay, Chk1 inhibitor combined with nintedanib or pirfenidone; assay type: cell-based; settings: nintedanib concentration curve, Chk1 inhibitor at pre-determined IC20; FIG. 7
Protocol: Human lung fibroblasts from three donors were seeded in 96-well plates and treated with 1.25 ng/mL TGFb to induce differentiation to a myofibroblast phenotype (characterized by the induction of alpha smooth muscle actin—aSMA). A Chk1 inhibitor PF-477736, or standard-of-care compounds in IPF (nintedanib or pirfenidone) were dosed as indicated in an 8-point concentration curve 1 hr prior to TGFb treatment. Alpha-SMA and DAPI staining were assessed after 72 hours using high content analysis for percent inhibition of aSMA induction and % viable cells. CRC=concentration response curve. The first noted compound was dosed in an 8-point concentration curve, while the second noted compound was dosed at the pre-determined IC20 in this assay.
For each condition, percent inhibition (PIN) of aSMA induction was calculated (circles, and left y-axis), and the percent of viable cells was calculated (triangles, right y-axis).

[8] = donor FB0303*, Healthy (aberrant response to nintedanib)
[9] = 20 mg/kg i.p. once daily day 7 to day 20
[10] = Multi-dose: mice from both the 10 mg/kg and the 20 mg/kg groups
[11] = 100 mg/kg orally once daily day 7 to day 20

## COc1cc2nc(-c3cc(F)ccc3O)nc(N[C@@H]3CNC[C@H]3C(C)(C)O)c2cc1OC [CCT-241533]
[1]; donor IPF06, IPF
  IC50: 631 nM
[1]; donor IPF07, IPF
  IC50: 158 nM
[1]; donor IPF08, IPF
  IC50: 316 nM
[2]; donor FB0054, Healthy
  IC50: 398 nM
[2]; donor FB2382, Healthy
  IC50: 501 nM

## NC(=O)Nc1cc(-c2cccc(F)c2)sc1C(=O)N[C@H]1CCCNC1 [AZD-7762]
[1]; donor IPF06, IPF
  IC50: 794 nM
[1]; donor IPF07, IPF
  IC50: 794 nM
[1]; donor IPF08, IPF
  IC50: 501 nM
[2]; donor FB0054, Healthy
  IC50: 1260 nM
[2]; donor FB2382, Healthy
  IC50: 631 nM

## N[C@@H]1CCCN(c2c(Br)cnc3[nH]cc(NC(=O)C4CC4)c23)C1 [GDC-0575]
[1]; donor IPF06, IPF
  LogM IC50 aSMA: −5.7 LogM
[1]; donor IPF07, IPF
  LogM IC50 aSMA: −5.7 LogM
[1]; donor IPF08, IPF
  LogM IC50 aSMA: −5.8 LogM
[2]; donor FB0054, Healthy
  LogM IC50 aSMA: −5.9 LogM
[2]; [8]
  LogM IC50 aSMA: −5.8 LogM
[2]; donor FB2382, Healthy
  LogM IC50 aSMA: −5.9 LogM

## PF-477736
[3]
  M1 macrophage activation (CD80 cell surface expression): inhibits M1 macrophage activation in a dose-dependent manner
[4]
  M2 macrophage activation (CD163 cell surface expression): inhibits M2 macrophage activation in a dose-dependent manner
[5]
  levels of representative cytokines and matrix metalloproteinases in supernatants: lower levels of representative cytokines and matrix metalloproteinases
[6]; 10 mg/kg i.p. once daily day 7 to day 20
  Collagen deposition (% pixel count): −1.27 % pixel count
[6]; [9]
  Collagen deposition (% pixel count): −1.64 % pixel count
  Fiber Alignment: 0.08
  Fiber Count: −66.3
  Fiber Density: −0.66
[6]
  disease burden by collagen deposition, fiber count, fiber density and fiber alignment (Sirius red): reduced disease burden by all of these parameters in a dose-dependent manner
  histopathology scores (Ashcroft, Masson's Trichrome): improved histopathology scores
[6]; [10]
  Collagen deposition (% pixel count): −1.63 % pixel count
  Fiber Alignment: 0.08
  Fiber Count: −67.7
  Fiber Density: −0.69
[6]; deep learning algorithm, FIG. 3B, 3C
  pathology severity, whole lung imaging (histogram, ECDF): greater reduction in pathology severity compared to nintedanib

## COC(=O)c1ccc2c(c1)NC(=O)/C2=C(\Nc1ccc(N(C)C(=O)CN2CCN(C)CC2)cc1)c1ccccc1 [Nintedanib]
[6]; [11]
  Collagen deposition (% pixel count): +0.31 % pixel count
  Fiber Alignment: −0.03
  Fiber Count: +20
  Fiber Density: +0.40
[6]
  disease burden by collagen deposition, fiber count, fiber density and fiber alignment (Sirius red): did not
  histopathology scores (Ashcroft, Masson's Trichrome): improved histopathology scores
[7]
  concentration of nintedanib required for 50% inhibition of fibroblast to myofibroblast differentiation: lower when co-administered with a Chk1 inhibitor

## COc1cccc(OCCCN)c1-c1cc(Nc2cnc(C#N)cn2)n[nH]1 [prexasertib]
[1]; donor IPF06, IPF
  IC50: 1000 nM
[1]; donor IPF07, IPF
  IC50: 1000 nM
[1]; donor IPF08, IPF
  IC50: 631 nM
[2]; donor FB0054, Healthy
  IC50: 631 nM
[2]; donor FB2382, Healthy
  IC50: 794 nM

## N#Cc1cnc(Nc2cc(NC[C@H]3CNCCO3)c(C(F)(F)F)cn2)cn1 [CCT-245737]
[1]; donor IPF06, IPF
  IC50: 3160 nM
[1]; donor IPF07, IPF
  IC50: 3160 nM
[1]; donor IPF08, IPF
  IC50: 3160 nM
[2]; donor FB0054, Healthy
  IC50: 3160 nM
[2]; [8]
  IC50: 2510 nM
[2]; donor FB2382, Healthy
  IC50: 3160 nM

## Cn1cc(-c2cnn3c(N)c(Br)c([C@@H]4CCCNC4)nc23)cn1 [MK-8776]
[1]; donor IPF06, IPF
  IC50: 2000 nM
[1]; donor IPF07, IPF
  IC50: 2000 nM
[1]; donor IPF08, IPF
  IC50: 1580 nM
[2]; [8]
  IC50: 398 nM
[2]; donor FB2382, Healthy
  IC50: 3160 nM
